Data reported in paper PMC11061149, “Protein mimetic 2D FAST rescues alpha synuclein aggregation mediated early and post disease Parkinson’s phenotypes” (Nature Communications, 2024).
Values joined by “and” are separate entries in the source; they are usually repeats but may differ in a detail not shown here. Identical values can stand only once.

Columns and labels:
[1] = test system: UA196 worms (human αS and GFP in DA neurons); experiment: Confocal counting of healthy DA neurons in UA196 worms, early treatment (day two and four); type: in vivo, C. elegans; design: key to Total neurons, Average: healthy DA neurons per replicate of 10 worms, max 60
From the text: The aggregation of αS is associated with the neurodegeneration of DA neurons, which is a pathological hallmark of PD. Next, we investigated the neuroprotective effect of NS163 on the intraneuronal αS aggregation-mediated degeneration of DA neurons in a well-established C. elegans PD model (UA196)[20],[72]–[75]. The UA196 worms express both human αS and GFP in DA neurons under the control of the dopamine promoter genotype (Pdat-1::GFP; Pdat-1::α-SYN). The expression and aggregation of αS in six DA neurons that are located within the anterior region of worms lead to progressive neurodegeneration characteristics during the aging of UA196 worms. This strain has been used to gain insights into the PD-associated mechanisms and to assess the neuroprotective effect of ligands against the intraneuronal αS aggregation[20],[72]–[75]. During the aging of worms, αS protein aggregates and degenerates the DA neurons as represented by the gradual loss of cell bodies as observed from day 3 (Fig. 7b, c, filled red arrow) to day 5 (Fig. 7d, e, empty red arrow), to day 15 (Fig. 7f, g, empty red arrow). Additionally, there was fragmentation and blebbing of neurites from day 3 (Fig. 7b, c, filled yellow arrow) to day 5 (Fig. 7d, e, empty yellow arrow), which has been observed by others as well[72]–[75]. The maximum number of healthy DA neurons in one UA196 worm is six on day 3 (no degeneration) and we used 10 worms/biological replicate, which makes a total of 60 healthy DA neurons/biological replicate. Therefore, for each study, the maximum number of healthy DA neurons in UA196 worms is 60 as an average for each biological replicate. […] None of the UA196 worms had all six healthy DA neurons on day 5 (Fig. 7k, -NS163) and there was a gradual decline in the total number of healthy DA neurons in UA196 worms (Supplementary Fig. 26a). […] The average number of intact DA neurons in UA196 worms treated with NS163 was 59.5, 58.7, and 57.3 on day five, 10, and 15, respectively (Fig. 7j, red line). Additionally, the total number of treated worms with all six intact DA neurons were 57, 52, and 47 on day 5, 10, and 15, respectively (Fig. 7k, Supplementary Fig. 26b).
In UA196 strain, human αS and GFP are expressed in DA neurons under control of a dopamine transporter-specific promoter [Pdat-1::α-syn+Pdat-1::GFP], which results in age-dependent neurodegeneration of six DA neurons.
This experiment was performed based on previously described protocols with slight modifications[24],[65],[88]. Briefly, the worm strains (NL5901 or UA196) were bleached at the same time and the eggs were incubated on PLATE 1. On day two, the worms were divided into two batches. One half of the worms were transferred (using M9 buffer) on PLATE 2 (without ligand) and the second half of the worms were transferred to PLATE 3 (with ligand). The concentration of the ligands varied from 10–50 µM as described in the main manuscript. The worms were incubated on PLATE 2 or PLATE 3 up to day 3 at 20 °C in an incubator with constant humidity. On day four, the ligand (10–50 µM, stock conc. = 10 mM in DMSO, DMSO from 0.1–0.5%, v/v) was added again to PLATE 3. For confocal imaging, at least 10 worms per condition (from PLATE 2 or PLATE 3) were transferred to a cover slide containing an anesthetic (40 mM sodium azide), and mounted on glass microscope slide containing 2% agarose pads using a reported protocol. The images of the worms were collected using an Olympus Fluoview FV3000 confocal/2-photon microscope (40 x Plan-Apo/1.3 NA objective with DIC capability) and processed using the OlympusViewer in ImageJ software. For NL5901 worms, the inclusions of the aggregated αS (GFP puncta in the muscle cells) were manually counted (10 worms per condition) for the five-day imaging period (day 5 to day 9) for PLATE 2 or PLATE 3. […]

αS = target: T1, αS (Homo sapiens, UniProt P37840); experiment: Isothermal titration calorimetry (ITC); type: binding; conditions: ligand titrated into 15 μM αS in PBS; read-out: dissociation constant (Kd)
T1 construct: made in house; host or cells: E. coli BL21(DE3)
Procedure: The ITC experiments were performed in a NANO-ITC (TA Instruments, New Castle, DE). For each ITC experiment, a solution of 250 μM NS132 in PBS was serially titrated (2 μL injections […] via rotary syringe, stirring speed at 300 rpm) into a sample cell containing 350 μL of 15 μM αS in the same buffer conditions at 300 sec intervals. The heat associated with each injection was calculated by integrating each heat burst curve using NanoAnalyze software (TA Instruments, New Castle, DE). The associated heat for each injection of NS132 in αS solution was corrected by subtracting heat resulted from the titration of NS132 into buffer (in 1 × PBS) under identical conditions. The corrected heat values were plotted as a function of the molar ratio of NS132 to αS and the plot was fitted using a one binding site independent model available in NanoAnalyze software. The fitting was carried out using 10,000 iterations in the software without any data constraints during the fitting. The ITC titrations were conducted in triplicate and the reported thermodynamic parameters were calculated as an average of three independent experiments.

[2] = UA196+NS132, Day 3, 10 per trial
[3] = UA196+NS132, Day 5, 10 per trial
[4] = UA196+NS132, Day 10, 10 per trial
[5] = UA196+NS132, Day 15, 10 per trial

`Cc1ccc(NC(=O)c2ccc(NC(=O)c3ccc([N+](=O)[O-])c(NCCc4c[nH]c5ccccc45)n3)c(NCC3CCCCC3)n2)c(OCC(=O)O)n1` [NS132] was tested, and the “number of intact DA neurons in UA196 worms (max. 60)” value ([1]; 50 µM ligand on day two and four, day 15 (untreated 13.5)) was 51, the “Total neurons, Average” value ([1]; UA196+NS132, Day 3) was 59.5 and the “Number of worms with 1 neurons” value [1, 2] was 0. The “Number of worms with 2 neurons” value [1, 2] was 0, the “Number of worms with 6 neurons” value [1, 2] was 9 and 10 and the “number of worms with 3 neurons” value [1, 2] was 0. For the same compound, the “number of worms with 4 neurons” value [1, 2] was 0, the “Total neurons, Average” value ([1]; UA196+NS132, Day 5) was 55.8333 and the “Number of worms with 1 neurons” value [1, 3] was 0. The “Number of worms with 2 neurons” value [1, 3] was 0, the “Number of worms with 5 neurons” value [1, 3] was 2 and 3 and 4 and the “Number of worms with 6 neurons” value [1, 3] was 7 and 8 and 6 and 5. For the same compound, the “number of worms with 3 neurons” value [1, 3] was 0, the “Total neurons, Average” value ([1]; UA196+NS132, Day 10) was 53.1667 and the “Number of worms with 1 neurons” value [1, 4] was 0. For the same compound, the “Number of worms with 2 neurons” value [1, 4] was 0, the “Number of worms with 6 neurons” value [1, 4] was 6 and 4 and 5 and the “number of worms with 3 neurons” value [1, 4] was 0. The “Total neurons, Average” value ([1]; UA196+NS132, Day 15) was 51, the “Number of worms with 1 neurons” value [1, 5] was 0 and the “Number of worms with 2 neurons” value [1, 5] was 0. For the same compound, the “Number of worms with 5 neurons” value [1, 5] was 5 and 4 and 3, the “Number of worms with 6 neurons” value [1, 5] was 3 and 4 and 5 and the “Total neurons, UA196 worms+Ligands” value ([1]; UA196 worms+Ligands, one value per trial, day not given for ligand (controls: Day 3, Day 15)) was 53 and 48 and 50 and 54 and 49 and 52. It also gave a Kd (αS) of 1810 ± 330 nM.
